Reference: article PMC10095950, “Development of Cell Permeable NanoBRET Probes for the Measurement of PLK1 Target Engagement in Live Cells” (Molecules, 2023)

Experiments:
Type in all cases: cell-based
GAK = biological target: T1, GAK (Homo sapiens, UniProt O14976); conditions: live cell, K10 tracer
T1 construct: host or cells: HEK293
T1 sequence (O14976 1-1311): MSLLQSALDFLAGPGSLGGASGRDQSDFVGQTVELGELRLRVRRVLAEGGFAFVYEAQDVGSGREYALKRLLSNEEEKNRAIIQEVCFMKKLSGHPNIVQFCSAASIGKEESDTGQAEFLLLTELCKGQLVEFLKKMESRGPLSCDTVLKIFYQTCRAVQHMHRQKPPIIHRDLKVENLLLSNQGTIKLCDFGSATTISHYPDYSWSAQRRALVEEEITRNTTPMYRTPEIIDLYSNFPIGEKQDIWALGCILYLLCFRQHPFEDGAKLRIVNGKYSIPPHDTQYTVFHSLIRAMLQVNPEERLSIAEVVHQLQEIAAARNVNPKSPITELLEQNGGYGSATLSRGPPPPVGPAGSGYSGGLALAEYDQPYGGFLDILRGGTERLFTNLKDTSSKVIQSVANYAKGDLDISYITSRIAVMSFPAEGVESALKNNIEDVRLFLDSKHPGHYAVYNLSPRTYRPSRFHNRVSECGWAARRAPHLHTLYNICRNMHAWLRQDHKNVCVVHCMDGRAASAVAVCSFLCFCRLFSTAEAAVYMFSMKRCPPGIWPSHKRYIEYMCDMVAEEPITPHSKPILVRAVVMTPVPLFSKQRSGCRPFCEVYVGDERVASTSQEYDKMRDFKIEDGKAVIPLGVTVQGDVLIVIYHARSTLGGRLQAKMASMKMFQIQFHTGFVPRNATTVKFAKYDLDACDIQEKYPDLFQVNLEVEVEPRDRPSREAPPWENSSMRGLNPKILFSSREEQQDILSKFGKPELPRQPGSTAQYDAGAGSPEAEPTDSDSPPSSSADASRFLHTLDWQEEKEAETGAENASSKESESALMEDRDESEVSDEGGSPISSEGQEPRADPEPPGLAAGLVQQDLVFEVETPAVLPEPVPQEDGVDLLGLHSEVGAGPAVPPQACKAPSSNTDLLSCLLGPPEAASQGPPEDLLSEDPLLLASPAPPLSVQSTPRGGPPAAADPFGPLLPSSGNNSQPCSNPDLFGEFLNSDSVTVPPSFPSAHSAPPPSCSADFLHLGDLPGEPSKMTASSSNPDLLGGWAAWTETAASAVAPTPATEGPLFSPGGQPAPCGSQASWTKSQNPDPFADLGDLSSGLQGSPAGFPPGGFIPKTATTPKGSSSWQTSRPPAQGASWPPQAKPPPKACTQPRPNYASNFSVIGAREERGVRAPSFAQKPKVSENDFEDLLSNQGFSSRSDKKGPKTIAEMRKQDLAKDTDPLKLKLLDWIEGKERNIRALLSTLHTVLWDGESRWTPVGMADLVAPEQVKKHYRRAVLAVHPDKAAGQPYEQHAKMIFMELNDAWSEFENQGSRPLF

MAP3K4 = biological target: T2, MAP3K4 (Homo sapiens, UniProt Q9Y6R4); conditions: live cell, K10 tracer
T2 construct: host or cells: HEK293
T2 sequence (Q9Y6R4 whole entry): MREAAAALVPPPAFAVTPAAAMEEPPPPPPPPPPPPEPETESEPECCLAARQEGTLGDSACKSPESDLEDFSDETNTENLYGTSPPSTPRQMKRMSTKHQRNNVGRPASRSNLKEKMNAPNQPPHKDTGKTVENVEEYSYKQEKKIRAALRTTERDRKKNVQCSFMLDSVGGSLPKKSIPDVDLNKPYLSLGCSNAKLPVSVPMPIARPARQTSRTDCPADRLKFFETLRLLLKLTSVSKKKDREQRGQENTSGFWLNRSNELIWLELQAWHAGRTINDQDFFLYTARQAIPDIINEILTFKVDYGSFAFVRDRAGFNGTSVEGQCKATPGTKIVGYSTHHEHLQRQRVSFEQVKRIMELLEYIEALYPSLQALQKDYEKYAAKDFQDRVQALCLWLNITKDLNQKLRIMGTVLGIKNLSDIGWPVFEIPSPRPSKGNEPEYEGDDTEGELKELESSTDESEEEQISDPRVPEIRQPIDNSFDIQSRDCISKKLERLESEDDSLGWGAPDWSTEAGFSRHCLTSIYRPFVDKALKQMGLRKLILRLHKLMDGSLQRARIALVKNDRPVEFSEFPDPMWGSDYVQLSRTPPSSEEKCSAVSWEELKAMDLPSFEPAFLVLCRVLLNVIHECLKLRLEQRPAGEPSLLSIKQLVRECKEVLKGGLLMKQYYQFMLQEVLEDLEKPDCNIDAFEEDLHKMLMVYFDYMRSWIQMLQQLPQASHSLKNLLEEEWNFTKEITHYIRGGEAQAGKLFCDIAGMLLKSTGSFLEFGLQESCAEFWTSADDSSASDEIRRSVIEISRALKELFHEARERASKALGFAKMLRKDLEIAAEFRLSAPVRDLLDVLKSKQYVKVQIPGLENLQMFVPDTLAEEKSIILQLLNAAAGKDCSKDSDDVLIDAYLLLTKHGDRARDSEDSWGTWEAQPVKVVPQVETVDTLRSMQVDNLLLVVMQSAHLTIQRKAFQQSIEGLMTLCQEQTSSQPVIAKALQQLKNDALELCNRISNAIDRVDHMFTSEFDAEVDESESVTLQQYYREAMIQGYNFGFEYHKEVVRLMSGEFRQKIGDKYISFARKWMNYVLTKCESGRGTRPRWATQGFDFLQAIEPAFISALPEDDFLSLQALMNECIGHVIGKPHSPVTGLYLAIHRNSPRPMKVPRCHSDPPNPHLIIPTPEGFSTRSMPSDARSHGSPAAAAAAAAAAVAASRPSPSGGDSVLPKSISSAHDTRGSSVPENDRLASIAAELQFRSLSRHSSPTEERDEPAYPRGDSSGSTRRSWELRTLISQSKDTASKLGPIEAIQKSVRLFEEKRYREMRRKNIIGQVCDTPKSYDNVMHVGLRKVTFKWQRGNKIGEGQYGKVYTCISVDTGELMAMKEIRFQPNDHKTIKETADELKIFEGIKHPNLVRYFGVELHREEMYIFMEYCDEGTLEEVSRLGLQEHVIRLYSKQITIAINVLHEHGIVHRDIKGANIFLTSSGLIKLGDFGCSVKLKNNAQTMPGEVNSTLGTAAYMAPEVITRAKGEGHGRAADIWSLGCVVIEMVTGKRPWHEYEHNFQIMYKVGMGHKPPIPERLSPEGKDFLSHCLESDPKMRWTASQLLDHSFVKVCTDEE

WEE1 = biological target: T3, WEE1 (Homo sapiens, UniProt P30291); conditions: live cell, K10 tracer
T3 construct: host or cells: HEK293
T3 sequence (P30291 whole entry): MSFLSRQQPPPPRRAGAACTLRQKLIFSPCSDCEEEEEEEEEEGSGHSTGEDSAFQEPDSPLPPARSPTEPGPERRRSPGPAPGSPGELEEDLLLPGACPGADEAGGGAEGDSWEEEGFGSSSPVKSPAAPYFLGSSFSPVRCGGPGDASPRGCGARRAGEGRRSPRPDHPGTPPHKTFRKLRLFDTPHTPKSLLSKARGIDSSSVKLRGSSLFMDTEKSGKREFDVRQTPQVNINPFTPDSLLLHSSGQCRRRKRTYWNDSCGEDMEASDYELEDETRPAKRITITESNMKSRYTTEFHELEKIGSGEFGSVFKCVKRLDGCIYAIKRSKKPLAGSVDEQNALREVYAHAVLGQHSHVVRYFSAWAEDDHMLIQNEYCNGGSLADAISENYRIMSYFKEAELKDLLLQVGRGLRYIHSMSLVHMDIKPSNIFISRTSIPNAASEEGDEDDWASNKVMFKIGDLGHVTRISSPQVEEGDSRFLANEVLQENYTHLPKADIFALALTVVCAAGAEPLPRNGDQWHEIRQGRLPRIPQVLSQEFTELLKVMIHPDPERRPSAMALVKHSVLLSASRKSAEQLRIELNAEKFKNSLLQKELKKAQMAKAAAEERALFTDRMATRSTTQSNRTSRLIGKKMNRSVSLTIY

PLK2 = biological target: T4, PLK2 (Homo sapiens, UniProt Q9NYY3); conditions: live cell, K10 tracer
T4 construct: host or cells: HEK293
T4 sequence (Q9NYY3 whole entry): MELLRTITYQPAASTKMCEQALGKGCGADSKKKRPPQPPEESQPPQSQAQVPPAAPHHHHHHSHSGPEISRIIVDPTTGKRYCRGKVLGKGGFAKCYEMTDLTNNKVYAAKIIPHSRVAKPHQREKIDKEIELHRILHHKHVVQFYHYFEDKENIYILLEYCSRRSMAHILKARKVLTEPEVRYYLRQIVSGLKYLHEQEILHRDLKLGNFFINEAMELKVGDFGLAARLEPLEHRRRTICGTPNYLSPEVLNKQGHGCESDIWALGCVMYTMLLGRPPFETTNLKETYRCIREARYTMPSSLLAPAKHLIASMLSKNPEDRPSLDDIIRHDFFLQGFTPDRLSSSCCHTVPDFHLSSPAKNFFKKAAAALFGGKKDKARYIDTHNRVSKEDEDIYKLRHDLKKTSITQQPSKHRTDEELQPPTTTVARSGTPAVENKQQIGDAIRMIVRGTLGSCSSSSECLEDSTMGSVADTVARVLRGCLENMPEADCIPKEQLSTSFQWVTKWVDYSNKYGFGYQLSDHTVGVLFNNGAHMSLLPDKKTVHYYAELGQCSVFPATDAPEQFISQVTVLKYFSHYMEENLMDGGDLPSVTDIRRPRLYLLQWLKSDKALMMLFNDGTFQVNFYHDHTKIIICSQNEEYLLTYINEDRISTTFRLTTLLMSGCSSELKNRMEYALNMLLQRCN

PLK3 = biological target: T5, PLK3 (Homo sapiens, UniProt Q9H4B4); conditions: live cell, K10 tracer
T5 construct: host or cells: HEK293
T5 sequence (Q9H4B4 whole entry): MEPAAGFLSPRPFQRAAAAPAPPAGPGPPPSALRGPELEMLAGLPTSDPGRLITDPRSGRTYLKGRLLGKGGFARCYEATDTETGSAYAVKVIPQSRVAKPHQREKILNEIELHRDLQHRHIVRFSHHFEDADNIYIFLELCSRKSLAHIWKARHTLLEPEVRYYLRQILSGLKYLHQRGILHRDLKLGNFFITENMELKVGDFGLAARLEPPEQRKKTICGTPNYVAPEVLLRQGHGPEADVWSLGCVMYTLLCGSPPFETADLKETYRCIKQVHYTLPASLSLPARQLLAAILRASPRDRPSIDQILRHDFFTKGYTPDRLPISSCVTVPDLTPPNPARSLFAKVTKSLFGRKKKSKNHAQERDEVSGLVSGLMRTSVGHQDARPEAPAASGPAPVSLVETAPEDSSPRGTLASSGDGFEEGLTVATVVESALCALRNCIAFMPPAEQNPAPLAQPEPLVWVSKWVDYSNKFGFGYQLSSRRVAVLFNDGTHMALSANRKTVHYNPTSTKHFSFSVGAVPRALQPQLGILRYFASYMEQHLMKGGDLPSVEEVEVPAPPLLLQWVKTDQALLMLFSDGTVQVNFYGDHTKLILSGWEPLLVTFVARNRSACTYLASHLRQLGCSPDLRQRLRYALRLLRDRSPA

human PLK1 (NLuc-PLK1) = biological target: T6, human PLK1 (NLuc-PLK1) (Homo sapiens, UniProt P53350); experiment: PLK1 NanoBRET target engagement assay (NLuc-PLK1, N-terminal fusion) in live HEK293 cells; conditions: probe 11; at least three technical replicates; read-out: PLK1 NanoBRET IC50 (dose response, Figure 3a)
T6 construct: plasmid DNAs encoding N- and C-terminal fusions of full-length PLK1 with NLuc; host or cells: HEK293
T6 sequence (P53350 whole entry, the tested form may be a part): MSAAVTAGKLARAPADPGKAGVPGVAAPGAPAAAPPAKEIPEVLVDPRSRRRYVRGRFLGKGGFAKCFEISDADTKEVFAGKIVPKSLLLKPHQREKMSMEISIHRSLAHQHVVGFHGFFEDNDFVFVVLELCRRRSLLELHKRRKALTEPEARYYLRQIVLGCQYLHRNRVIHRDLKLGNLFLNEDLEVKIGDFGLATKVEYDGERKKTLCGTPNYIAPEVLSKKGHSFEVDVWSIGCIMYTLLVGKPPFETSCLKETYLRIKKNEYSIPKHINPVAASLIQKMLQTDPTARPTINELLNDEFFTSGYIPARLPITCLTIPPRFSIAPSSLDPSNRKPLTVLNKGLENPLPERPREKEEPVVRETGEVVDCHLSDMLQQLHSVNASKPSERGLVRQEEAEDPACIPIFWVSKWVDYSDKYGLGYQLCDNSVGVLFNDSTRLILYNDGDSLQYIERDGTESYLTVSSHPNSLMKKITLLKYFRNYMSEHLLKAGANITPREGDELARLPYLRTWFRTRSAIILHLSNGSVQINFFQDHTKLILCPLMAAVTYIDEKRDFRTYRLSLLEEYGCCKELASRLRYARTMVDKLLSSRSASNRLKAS
Protocol: HEK293 cells (ATCC) were cultured in DMEM (Gibco) + 10% FBS (Seradigm) with incubation in a humidified 37 °C/5% CO2 incubator. N- or C-terminal NLuc/PLK fusions were encoded in pFN31K expression vectors (Promega), including flexible Gly-Ser-Ser-Gly linkers between NLuc and ORFs corresponding to UniProt isoform 1 (PLK1: P53350-1, PLK2: Q9NYY3-1, and PLK3: Q9H4B4-1). Carrier DNA was encoded in pGEM-3Z vectors (Promega). For cellular BRET target engagement experiments, HEK293 cells were transfected with NLuc/PLK fusion constructs using FuGENE HD (Promega) according to the manufacturer’s protocol. […] One part (vol) of FuGENE HD complexes thus formed was combined with 20 parts (vol) of HEK293 cells suspended at a density of 2 × 10^5 per mL, followed by incubation in a humidified 37 °C/5% CO2 incubator for 20 hr.
To test BRET probes 10 and 11 against PLK1, HEK293 adherent cells were incubated with either NLuc fused to the N-terminus of PLK1 (NLuc-PLK1) or the C-terminus of PLK1 (PLK1-NLuc) using 1 µM of the BRET probe, and mBRET units were measured. […] NLuc-PLK2 and NLuc-PLK3 were tested with both probes 10 and 11 using the same protocol.
To estimate the half-maximal effective concentration (EC50) of probe 11 to PLK1 in cells, adherent HEK293 cells in a 96-well plate expressing the NLuc-PLK1 fusion protein were mixed with an increasing concentration of BRET probe 11. The resulting BRET ratio was fitted to the sigmoidal 4-parameter dose–response curve using Prism 9.0 (GraphPad, Boston MA, USA).

TNNI3K = biological target: T7, TNNI3K (Homo sapiens, UniProt Q59H18); conditions: live cell, K10 tracer
T7 construct: host or cells: HEK293
T7 sequence (Q59H18 1-835): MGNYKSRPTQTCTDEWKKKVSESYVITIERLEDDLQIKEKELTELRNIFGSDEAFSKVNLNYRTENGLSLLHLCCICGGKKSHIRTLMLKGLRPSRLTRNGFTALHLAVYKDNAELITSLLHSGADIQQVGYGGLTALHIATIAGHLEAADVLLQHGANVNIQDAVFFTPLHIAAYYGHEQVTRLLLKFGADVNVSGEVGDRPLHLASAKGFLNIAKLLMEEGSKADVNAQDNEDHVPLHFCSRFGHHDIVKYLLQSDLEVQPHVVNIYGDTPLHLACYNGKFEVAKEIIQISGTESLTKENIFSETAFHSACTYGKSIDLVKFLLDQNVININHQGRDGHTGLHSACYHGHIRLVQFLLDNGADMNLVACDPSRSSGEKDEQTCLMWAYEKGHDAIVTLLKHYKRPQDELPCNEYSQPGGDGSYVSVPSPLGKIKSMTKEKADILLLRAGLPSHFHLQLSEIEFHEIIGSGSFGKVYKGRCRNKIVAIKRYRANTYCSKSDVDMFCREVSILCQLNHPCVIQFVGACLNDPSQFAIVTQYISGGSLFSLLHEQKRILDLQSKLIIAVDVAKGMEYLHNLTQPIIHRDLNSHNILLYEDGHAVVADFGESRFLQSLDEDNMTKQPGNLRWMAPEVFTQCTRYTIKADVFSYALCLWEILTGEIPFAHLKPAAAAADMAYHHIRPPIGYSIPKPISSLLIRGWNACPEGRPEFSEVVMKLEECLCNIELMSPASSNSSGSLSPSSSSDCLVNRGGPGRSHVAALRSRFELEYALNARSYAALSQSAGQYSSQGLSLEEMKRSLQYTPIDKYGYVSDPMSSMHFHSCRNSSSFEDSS

WEE2 = biological target: T8, WEE2 (Homo sapiens, UniProt P0C1S8); conditions: live cell, K10 tracer
T8 construct: host or cells: HEK293
T8 sequence (P0C1S8 whole entry): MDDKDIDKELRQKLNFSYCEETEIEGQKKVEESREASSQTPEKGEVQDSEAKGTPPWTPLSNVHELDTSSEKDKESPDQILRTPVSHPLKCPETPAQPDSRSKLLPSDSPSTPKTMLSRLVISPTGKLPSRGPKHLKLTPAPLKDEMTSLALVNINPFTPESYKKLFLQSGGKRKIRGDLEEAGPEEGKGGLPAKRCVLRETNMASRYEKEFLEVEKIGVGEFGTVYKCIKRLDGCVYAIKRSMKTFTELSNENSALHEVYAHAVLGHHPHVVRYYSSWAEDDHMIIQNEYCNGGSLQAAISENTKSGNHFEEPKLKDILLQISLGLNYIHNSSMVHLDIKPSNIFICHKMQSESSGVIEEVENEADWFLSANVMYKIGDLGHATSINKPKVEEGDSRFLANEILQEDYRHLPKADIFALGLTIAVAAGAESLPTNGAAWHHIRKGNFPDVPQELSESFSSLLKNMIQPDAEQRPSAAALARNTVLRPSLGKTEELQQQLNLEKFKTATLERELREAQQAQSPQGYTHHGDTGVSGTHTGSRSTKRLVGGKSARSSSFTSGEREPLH

C=CCn1c(=O)c2cnc(Nc3ccc(N4CCN(C)CC4)cc3)nc2n1-c1cccc(C(C)(C)O)n1 [adavosertib] showed a receptor occupancy at 1 µM (GAK) of 63%, a receptor occupancy at 1 µM (MAP3K4) of 67% and a receptor occupancy at 1 µM (WEE1) of 95%. For the same molecule, the receptor occupancy at 1 µM (PLK2) was 95%, the receptor occupancy at 1 µM (PLK3) was 53% and the IC50 (human PLK1 (NLuc-PLK1)) was > 1000 nM. For the same molecule, the receptor occupancy at 1 µM (TNNI3K) was 70% and the receptor occupancy at 1 µM (WEE2) was 59%.
